# Experimental data published in patent publication US4205076A, “Lipogenesis inhibition by certain esters of substituted benzodioxincarboxylic acids” (Shell Oil Company, priority 1979, dated 1980).
# Tested on: swine adipose tissue
# Experiment: Inhibition of lipogenesis (incorporation of radioactive carbon from glucose-U-14C into lipid) in swine adipose tissue slices
# Format: cell-based
# Conditions: 100 micrograms per milliliter, 37° C., 2 hours, insulin, 5% DMSO, in triplicate
# Description: The manner in which they cause this effect is not known with certainty; it is believed that they interfere with the synthesis of fatty acids in the tissues. Their effectiveness for this purpose has been ascertained by immersing samples of swine adipose tissue in a liquid medium containing radioactive glucose and the test chemical for a period of time, then isolating the lipid from the treated tissue and determining the incorporation of the radioactive carbon into lipid by means of scintillation counting techniques. These tests were conducted in swine adipose tissues because in swine, the primary site of lipogenesis--i.e., fatty acid synthesis--appears to be adipose tissue.
# Described in more detail, tests were conducted according to the following general procedure:
# 150 milligrams of slices of swine adipose tissue were incubated at 37° C. for 2 hours with shaking in 3 milliliters of Krebs-Ringer bicarbonate solution containing one-half the normal calcium ion concentration, 60 micromoles of glucose, 0.5 micro-Curie of glucose-U^14 C, and 300 microunits of insulin, and 5% dimethyl sulfoxide (DMSO). The test compounds were added as a solution or suspension in DMSO and were present at a concentration of 100 micrograms per milliliter of the incubation mixture.
# The incubation was terminated by addition of 0.25 milliliter of 1 N sulfuric acid. The resulting mixture was extracted with a total of 25 milliliters of chloroform/methanol (2:1 v/v). The extracts were washed according to Folch et al. (J. Biol. Chem. 226, 497-509, (1957)), air dried, and counted in a liquid scintillation counter with 15 milliliters of counting fluid (two parts toluene containing 0.4% w/v New England Nuclear Omnifluor/1 part Triton X-100). The tests were conducted in triplicate and were accompanied by control tests in which all ingredients,proportions and conditions were the same except that no test compound was included. From the data obtained were calculated the percent inhibition of lipid synthesis by the test compounds in each case. The data obtained from the tests are set out in Table 1, as the percent inhibition of lipogenesis compared to the results obtained in the control tests wherein only the test compound was omitted.
row,Compound,Percent Inhibition (of lipogenesis compared to control) [%]
1,"CCOC(=O)C1COc2ccc(C(C)=NOC)cc2O1 (stereo not drawn) [Compound 3, Ethyl 2,3-dihydro-7-(1-(methoxyimino)ethyl)-1,4-benzodioxin-2-carboxylate]",52
2,"CCOC(=O)C1COc2ccc(C(=O)c3ccccc3)cc2O1 (stereo not drawn) [Compound 5, Ethyl 7-benzoyl-2,3-dihydro-1,4-benzodioxin-2-carboxylate]",69
3,"Ethyl 2,3-dihydro-7(and 6)-(1-(hydroxyimino)ethyl)-1,4-benzodioxin-2-carboxylate [Compound 2]",94
4,"Ethyl 6(and 7)-(2'-methyl-4'-thiazolyl)-2,3-dihydro-1,4-benzodioxin-2-carboxylate [Compound 6]",79
5,"Ethyl 6(and 7)-(acetylamino)-2,3-dihydro-1,4-benzodioxin-2-carboxylate [Compound 4]",96
6,"Ethyl 7(and 6)-acetyl-2,3-dihydro-1,4-benzodioxin-2-carboxylate [Compound 1]",89
